Series [1] deals with ErbB2 WT (Homo sapiens (Human), UniProt P04626). Put plainly: ErbB Enzyme Assay (HTRF KinEASE-TK), Assay 2. The series is classed as biochemical. (TR-FRET usually uses a lanthanide donor and a delayed reading to cut background.)
For series [2], the target named is EGFR (Homo sapiens (Human), UniProt P00533). Put plainly: ErbB Enzyme Assay (HTRF KinEASE-TK), Assay 3. The series is classed as biochemical.
Series [3] deals with ErbB2 with Exon 20 YVMA insertion (HER2-YVMA) (Homo sapiens (Human), UniProt P04626, INS775YVMA). Kind of series: Cellular Phosphorylation Assay, Assay 4 (constitutive ErbB2 phosphorylation, NIH 3T3 cells). The series is classed as cell-based.
In series [4] the target is EGFR wild type (EGFR WT) (Homo sapiens (Human), UniProt P00533). Kind of series: Cellular Phosphorylation Assay, Assay 5 (EGF-stimulated EGFR phosphorylation, NIH 3T3 cells). The series is classed as cell-based.
The target of series [5] is BCRP (Homo sapiens (Human), UniProt Q9UNQ0). Kind of series: BCRP MDCKII efflux assay (Assay 7). The series is classed as in vitro ADME. Conditions: dog; efflux ratio Papp(B-A)/Papp(A-B), BCRP MDCKII cells; read-out: Assay 7 Pe Ratio. As for the experimental part: Assay conditions included with and without the BCRP-specific inhibitor, KO143, at a concentration of 0.3 μM to ascertain the contribution of BCRP to the efflux value of the test compound.
Final organic concentration in the assay was 1%.

In series [6] the target is MDR1 (P-gp) (Homo sapiens (Human), UniProt P08183). Kind of series: in vitro. Conditions: pig, LLC-PK1.
[7] abbreviates: cellular ErbB2 YVMA phosphorylation.
[8] abbreviates: cellular EGFR WT phosphorylation, EGF-stimulated.
Where [9] appears, read: EGF-stimulated EGFR WT phosphorylation.

Our source for the IC50 and efflux ratio values is US12447153B2, “HER2 mutation inhibitors” (Array BioPharma Inc., priority 2021, dated 2025).

Sequence of BCRP (Q9UNQ0 whole entry): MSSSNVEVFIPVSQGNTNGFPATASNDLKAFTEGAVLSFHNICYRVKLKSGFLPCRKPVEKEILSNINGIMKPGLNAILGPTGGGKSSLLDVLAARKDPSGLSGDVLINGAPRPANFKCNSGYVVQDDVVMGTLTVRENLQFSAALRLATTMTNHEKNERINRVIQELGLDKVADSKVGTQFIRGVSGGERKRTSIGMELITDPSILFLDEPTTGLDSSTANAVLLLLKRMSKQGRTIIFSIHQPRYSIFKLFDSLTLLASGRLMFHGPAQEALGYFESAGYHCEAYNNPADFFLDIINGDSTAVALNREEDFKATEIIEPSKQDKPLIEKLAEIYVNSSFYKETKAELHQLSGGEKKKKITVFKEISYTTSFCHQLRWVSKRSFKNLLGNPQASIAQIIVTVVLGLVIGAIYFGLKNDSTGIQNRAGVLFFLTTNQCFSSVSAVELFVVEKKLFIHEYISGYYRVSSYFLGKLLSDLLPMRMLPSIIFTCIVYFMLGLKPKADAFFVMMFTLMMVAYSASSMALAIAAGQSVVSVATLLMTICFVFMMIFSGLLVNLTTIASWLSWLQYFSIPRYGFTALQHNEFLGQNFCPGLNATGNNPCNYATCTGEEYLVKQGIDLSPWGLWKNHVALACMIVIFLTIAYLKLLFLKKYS
Sequence of MDR1 (P-gp) (P08183 whole entry): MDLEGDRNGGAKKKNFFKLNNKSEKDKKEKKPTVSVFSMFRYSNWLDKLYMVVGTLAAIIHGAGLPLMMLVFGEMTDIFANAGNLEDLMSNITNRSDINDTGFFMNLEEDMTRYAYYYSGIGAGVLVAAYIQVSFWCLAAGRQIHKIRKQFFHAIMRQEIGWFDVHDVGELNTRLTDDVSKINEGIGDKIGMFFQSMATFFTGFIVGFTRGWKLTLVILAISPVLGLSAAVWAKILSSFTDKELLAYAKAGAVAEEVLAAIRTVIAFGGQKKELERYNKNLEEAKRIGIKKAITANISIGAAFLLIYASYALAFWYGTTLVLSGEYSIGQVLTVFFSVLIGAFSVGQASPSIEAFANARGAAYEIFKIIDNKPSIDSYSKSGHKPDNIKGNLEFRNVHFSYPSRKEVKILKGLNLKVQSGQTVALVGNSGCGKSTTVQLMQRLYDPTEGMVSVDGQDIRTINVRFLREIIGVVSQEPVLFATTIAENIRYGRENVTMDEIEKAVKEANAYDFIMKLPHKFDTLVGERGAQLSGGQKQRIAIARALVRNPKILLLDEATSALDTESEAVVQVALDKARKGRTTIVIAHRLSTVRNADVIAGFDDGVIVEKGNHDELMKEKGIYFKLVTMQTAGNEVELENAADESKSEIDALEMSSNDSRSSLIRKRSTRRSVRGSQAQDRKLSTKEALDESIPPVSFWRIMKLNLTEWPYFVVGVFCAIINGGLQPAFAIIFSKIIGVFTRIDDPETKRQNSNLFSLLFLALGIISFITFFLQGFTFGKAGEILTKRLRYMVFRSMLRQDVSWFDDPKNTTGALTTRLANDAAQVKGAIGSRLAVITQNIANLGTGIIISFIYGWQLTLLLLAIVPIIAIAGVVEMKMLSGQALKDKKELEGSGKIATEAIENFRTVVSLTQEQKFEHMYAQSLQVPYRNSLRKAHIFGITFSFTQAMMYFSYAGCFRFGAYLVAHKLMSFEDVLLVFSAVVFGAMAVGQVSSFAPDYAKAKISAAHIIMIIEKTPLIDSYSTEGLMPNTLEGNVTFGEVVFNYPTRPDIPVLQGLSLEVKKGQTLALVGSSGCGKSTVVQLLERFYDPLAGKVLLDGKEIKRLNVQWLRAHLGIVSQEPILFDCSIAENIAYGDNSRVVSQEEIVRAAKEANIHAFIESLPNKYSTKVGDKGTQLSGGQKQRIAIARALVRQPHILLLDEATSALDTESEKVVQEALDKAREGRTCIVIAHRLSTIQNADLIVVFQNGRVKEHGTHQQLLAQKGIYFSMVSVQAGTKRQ
Sequence of EGFR wild type (EGFR WT) (P00533 25-1210): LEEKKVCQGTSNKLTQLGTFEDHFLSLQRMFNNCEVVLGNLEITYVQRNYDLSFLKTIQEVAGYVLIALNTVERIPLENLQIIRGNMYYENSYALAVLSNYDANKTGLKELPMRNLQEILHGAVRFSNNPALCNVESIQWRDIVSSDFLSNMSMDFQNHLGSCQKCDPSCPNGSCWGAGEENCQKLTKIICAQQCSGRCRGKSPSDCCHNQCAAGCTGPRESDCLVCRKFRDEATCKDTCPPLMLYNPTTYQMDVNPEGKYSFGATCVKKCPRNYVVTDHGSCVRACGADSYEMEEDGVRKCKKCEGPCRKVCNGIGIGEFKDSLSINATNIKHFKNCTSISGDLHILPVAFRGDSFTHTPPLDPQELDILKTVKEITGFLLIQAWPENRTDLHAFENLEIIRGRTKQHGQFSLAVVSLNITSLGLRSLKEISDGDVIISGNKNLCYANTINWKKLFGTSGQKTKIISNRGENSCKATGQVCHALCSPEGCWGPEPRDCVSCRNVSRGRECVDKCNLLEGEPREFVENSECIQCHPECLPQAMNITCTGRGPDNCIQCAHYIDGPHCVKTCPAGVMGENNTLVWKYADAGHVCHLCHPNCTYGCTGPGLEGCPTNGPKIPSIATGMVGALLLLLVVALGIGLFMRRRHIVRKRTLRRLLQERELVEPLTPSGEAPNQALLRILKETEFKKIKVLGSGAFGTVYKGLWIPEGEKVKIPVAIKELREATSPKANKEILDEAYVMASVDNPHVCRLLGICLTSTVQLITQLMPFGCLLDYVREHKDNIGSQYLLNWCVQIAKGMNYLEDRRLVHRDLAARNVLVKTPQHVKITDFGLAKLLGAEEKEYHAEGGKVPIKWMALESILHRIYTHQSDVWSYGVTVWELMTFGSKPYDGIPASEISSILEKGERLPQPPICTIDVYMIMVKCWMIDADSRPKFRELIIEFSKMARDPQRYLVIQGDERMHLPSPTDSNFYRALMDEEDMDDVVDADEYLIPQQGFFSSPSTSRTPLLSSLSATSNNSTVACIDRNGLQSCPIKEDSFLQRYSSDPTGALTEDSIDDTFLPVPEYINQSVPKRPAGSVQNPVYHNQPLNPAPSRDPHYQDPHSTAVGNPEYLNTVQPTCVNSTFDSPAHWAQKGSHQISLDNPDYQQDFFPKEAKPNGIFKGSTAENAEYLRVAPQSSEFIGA
Sequence of EGFR (P00533 25-1210): as above

With `C=CC(=O)N1[C@@H]2CC[C@H]1CC(c1ccc3ncnc(Nc4ccc(Oc5ccn6ncnc6c5)c(C)c4F)c3n1)C2` (stereo partly drawn) [Example 369], the IC50 (commonly the concentration needed to halve the response being measured) came to 67.1 nM in series [1] (ErbB2 WT enzyme assay), 2480 nM in series [2] (EGFR enzyme assay), 22.4 nM in series [3] (setting [7]) and 1360 nM in series [4] (setting [8]). Moreover, the figures for the efflux ratio at 2 h, 1 µM in series [5] and in series [6] were 4.3 and 1.1, respectively.

`C=CC(=O)N1CCCC(c2ccc3ncnc(Nc4ccc(Oc5ccn6ncnc6c5)c(C)c4)c3n2)CC1` (stereo not drawn) [Example 401]: the IC50 in series [1] (ErbB2 WT enzyme assay) was 9.2 nM; in series [2] (EGFR enzyme assay), 2720 nM; in series [3] (setting [7]), 30 nM; in series [4] (setting [8]), no less than 5000 nM. Moreover, the efflux ratio at 2 h, 1 µM in series [5] came to 5.5; in series [6], 1.5.

For the compound `C=CC(=O)N1CCN(c2ccc3ncnc(Nc4cc(C)c(Oc5ccn6ncnc6c5)cc4F)c3n2)CC12CC2` [Example 337], the IC50 was found to be 13 nM in series [1] (ErbB2 WT enzyme assay), 362 nM in series [2] (EGFR enzyme assay), 8.2 nM in series [3] (setting [7]) and 417 nM in series [4] (setting [8]). Besides, the efflux ratio at 2 h, 1 µM stood at 3.6 in series [5] and 1.4 in series [6].

Turning to `C=CC(=O)N1C[C@@H]2C[C@H]1CN2c1ccc2ncnc(Nc3ccc(Oc4ccc5c(c4)ncn5C)c(C)c3F)c2n1` [Example 84, 1-((1S,4S)-5-(4-((2-fluoro-3-methyl-4-((1-methyl-1H-benzo[d]imidazol-5-yl)oxy)phenyl)amino)pyrido[3,2-d]pyrimidin-6-yl)-2,5-diazabicyclo[2.2.1]heptan-2-yl)prop-2-en-1-one], the IC50 in series [1] (ErbB2 WT enzyme) was found to be 41 nM; in series [2] (EGFR enzyme), 221 nM; in series [3] (ErbB2 YVMA phosphorylation) it was 7.7 nM; in series [4] (setting [9]) it was 254 nM. The efflux ratio at 2 h, 1 µM was found to be 3.8 in series [5] and 1.9 in series [6].

Consider `C=CC(=O)N1[C@@H]2CC[C@H]1[C@H](c1ccc3ncnc(Nc4ccc(Oc5cnc6c(c5)ncn6C)c(C)c4)c3n1)C2` [Example 408], for which the IC50 in series [1] (ErbB2 WT enzyme assay) is 32 nM; in series [2] (EGFR enzyme assay), 498 nM; in series [3] (setting [7]) it was 23.7 nM; in series [4] (setting [8]) it was no less than 5000 nM. Further, the efflux ratio at 2 h, 1 µM in series [5] stood at 2.2; in series [6] it was 1.1.

As to `C=CC(=O)N1CCCN(c2ccc3ncnc(Nc4ccc(Oc5ccc6c(c5)ncn6C)c(C)c4F)c3n2)CC1(C)C` [Example 69, 1-(4-(4-((2-fluoro-3-methyl-4-((1-methyl-1H-benzo[d]imidazol-5-yl)oxy)phenyl)amino)pyrido[3,2-d]pyrimidin-6-yl)-2,2-dimethyl-1,4-diazepan-1-yl)prop-2-en-1-one], the IC50 in series [1] (ErbB2 WT enzyme) was 141 nM; in series [2] (EGFR enzyme), no less than 10000 nM; in series [3] (ErbB2 YVMA phosphorylation) it was 19.9 nM; in series [4] (setting [9]), no less than 5000 nM. The efflux ratio at 2 h, 1 µM in series [5] was determined as 2.4; in series [6], 3.

As for `C=CC(=O)N1CC[C@H]2C[C@@H](c3ccc4ncnc(Nc5cc(C)c(Oc6ccc7c(c6)ncn7C)cc5F)c4n3)C[C@H]21` (racemic) [Example 37, 1-(5-(4-((2-fluoro-5-methyl-4-((1-methyl-1H-benzo[d]imidazol-5-yl)oxy)phenyl)amino)pyrido[3,2-d]pyrimidin-6-yl)hexahydrocyclopenta[b]pyrrol-1(2H)-yl)prop-2-en-1-one], the IC50 in series [1] (ErbB2 WT enzyme) is 119 nM; in series [2] (EGFR enzyme), no less than 10000 nM; in series [3] (ErbB2 YVMA phosphorylation), 20.3 nM; in series [4] (setting [9]) it was no less than 5000 nM. The efflux ratio at 2 h, 1 µM in series [5] came to 1.8; in series [6] it was 1.5.

With `C=CC(=O)N1CCCC(c2ccc3ncnc(Nc4cc(C)c(Oc5ccn6ncnc6c5)cc4F)c3n2)CC1` (stereo not drawn) [Example 368], the IC50 in series [1] (ErbB2 WT enzyme assay) is 76.1 nM; in series [2] (EGFR enzyme assay), 9630 nM; in series [3] (setting [7]), 34.7 nM; in series [4] (setting [8]), no less than 5000 nM. For the same compound, the efflux ratio at 2 h, 1 µM stood at 2.7 in series [5] and 1.4 in series [6].

As to `C=CC(=O)N1CCC(Oc2ccc3ncnc(Nc4ccc(Oc5ccc6cn(C)nc6c5)c(C)c4)c3n2)CC1` [Example 3, 1-(4-((4-((3-methyl-4-((2-methyl-2H-indazol-6-yl)oxy)phenyl)amino)pyrido[3,2-d]pyrimidin-6-yl)oxy)piperidin-1-yl)prop-2-en-1-one], the IC50 in series [1] (ErbB2 WT enzyme) was 260 nM; in series [2] (EGFR enzyme), no less than 10000 nM; in series [3] (ErbB2 YVMA phosphorylation) it was 60.6 nM; in series [4] (setting [9]), no less than 5000 nM. Further, the efflux ratio at 2 h, 1 µM in series [5] stood at 1.5; in series [6] it was 2.

On to `C=CC(=O)N1CC2CC(C1)N2c1ccc2ncnc(Nc3ccc(Oc4ccn5ncnc5c4)c(C)c3F)c2n1` [Example 46, 1-(6-(4-((4-([1,2,4]triazolo[1,5-a]pyridin-7-yloxy)-2-fluoro-3-methylphenyl)amino)pyrido[3,2-d]pyrimidin-6-yl)-3,6-diazabicyclo[3.1.1]heptan-3-yl)prop-2-en-1-one], for which the IC50 in series [1] (ErbB2 WT enzyme) worked out at 119 nM; in series [2] (EGFR enzyme) it was 1270 nM; in series [3] (ErbB2 YVMA phosphorylation), 18.2 nM; in series [4] (setting [9]), 2100 nM. Also, the efflux ratio at 2 h, 1 µM in series [5] and in series [6] was 2.5 each time.

On to `C=CC(=O)N1C[C@H]2CC[C@@H]1CN2c1ccc2ncnc(Nc3ccc(Oc4ccn5ncnc5c4)c(C)c3F)c2n1` [Example 175, 1-((1R,4R)-5-(4-((4-([1,2,4]triazolo[1,5-a]pyridin-7-yloxy)-2-fluoro-3-methylphenyl)amino)pyrido[3,2-d]pyrimidin-6-yl)-2,5-diazabicyclo[2.2.2]octan-2-yl)prop-2-en-1-one], for which the IC50 amounted to 172 nM in series [1] (ErbB2 WT enzyme), 5350 nM in series [2] (EGFR enzyme), 22.2 nM in series [3] (ErbB2 YVMA phosphorylation) and 2410 nM in series [4] (setting [9]). Also, the efflux ratio at 2 h, 1 µM in series [5] came out at 4.8; in series [6], 3.3.

Consider `C=CC(=O)N1C[C@H]2C[C@@H]1CN(c1ccc3ncnc(Nc4ccc(Oc5ccc6c(c5)ncn6C)c(C)c4F)c3n1)C2` [Example 118, 1-((1S,5R)-3-(4-((2-fluoro-3-methyl-4-((1-methyl-1H-benzo[d]imidazol-5-yl)oxy)phenyl)amino)pyrido[3,2-d]pyrimidin-6-yl)-3,6-diazabicyclo[3.2.1]octan-6-yl)prop-2-en-1-one], for which the IC50 in series [1] (ErbB2 WT enzyme) was 54.1 nM; in series [2] (EGFR enzyme), 6090 nM; in series [3] (ErbB2 YVMA phosphorylation), 10.1 nM; in series [4] (setting [9]), no less than 5000 nM. The efflux ratio at 2 h, 1 µM in series [5] was 4.1; in series [6], 2.2.

Turning to `C=CC(=O)N1[C@@H]2CC[C@H]1[C@H](c1ccc3ncnc(Nc4ccc(Oc5ccn6ncnc6c5)c(C)c4F)c3n1)C2` (racemic) [Example 213, rac-1-((1 S,2R,4R)-2-(4-((4-([1,2,4]triazolo[1,5-a]pyridin-7-yloxy)-2-fluoro-3-methylphenyl)amino)pyrido[3,2-d]pyrimidin-6-yl)-7-azabicyclo[2.2.1]heptan-7-yl)prop-2-en-1-one], the IC50 in series [1] (ErbB2 WT enzyme) was 7.3 nM; in series [2] (EGFR enzyme) it was 264 nM; in series [3] (ErbB2 YVMA phosphorylation), 23.9 nM; in series [4] (setting [9]), no less than 5000 nM. Moreover, the efflux ratio at 2 h, 1 µM in series [5] was 3.4; in series [6] it was 1.5.
